The target of this assay is T1, cloned human dopamine D3 receptors (Homo sapiens, UniProt P35462).
T1 construct: expressed in transfected cells; membrane homogenate
T1 sequence (P35462 whole entry): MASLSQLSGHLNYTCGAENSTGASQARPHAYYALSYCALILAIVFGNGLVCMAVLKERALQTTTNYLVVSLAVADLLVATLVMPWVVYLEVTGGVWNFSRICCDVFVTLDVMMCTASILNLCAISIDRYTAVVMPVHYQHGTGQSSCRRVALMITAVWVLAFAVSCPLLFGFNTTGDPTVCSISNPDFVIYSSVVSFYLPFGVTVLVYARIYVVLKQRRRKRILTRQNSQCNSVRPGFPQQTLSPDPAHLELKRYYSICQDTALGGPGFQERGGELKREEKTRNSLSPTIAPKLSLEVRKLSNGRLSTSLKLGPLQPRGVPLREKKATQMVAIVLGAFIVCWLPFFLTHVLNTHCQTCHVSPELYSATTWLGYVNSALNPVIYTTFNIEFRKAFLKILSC
Description: [N-Methyl-3H]Spiroperidol binding to cloned human dopamine D3 receptors (Protocol 1). Conditions: the 21st table; read-out: D3 Ki. The gist of the method:
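Radioligand displacement with [N-methyl-3H]spiroperidol used a physiological-salt Tris buffer (0.05 M, pH 7.7; NaCl 120 mM, KCl 5 mM, CaCl2 2 mM, MgCl2 1 mM) and membranes of a high-expressing stable CHO clone carrying human D3. Total ligand concentration came from measured added CPM; 0.1% ascorbic acid was optional for oxidizable compounds.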
For `C[C@@H]1CN(c2csc3cc(F)ccc23)C[C@H](C)N1CCCCNC(=O)c1ccc(-c2ccccc2)cc1` [compound 826943], the Ki – broadly, a dissociation constant, usually derived from enzyme kinetics or from competition with a known ligand – turned out to be 12.7 nM. For `C[C@@H]1CN(c2csc3cc(F)ccc23)C[C@H](C)N1CCCCNC(=O)c1ccc(C(C)(C)C)cc1` [compound 826944] the value was 128 nM; for `C[C@@H]1CN(c2csc3cc(F)ccc23)C[C@H](C)N1CCCCNC(=O)c1cnc2ccccc2n1` [compound 826945], 133 nM.

For the compound `C[C@@H]1CN(c2csc3cc(F)ccc23)C[C@H](C)N1CCCCNC(=O)c1ccc(C(F)(F)F)cc1` [compound 826946], the Ki came out at 35.9 nM. To `C[C@@H]1CN(c2csc3cc(F)ccc23)C[C@H](C)N1CCCCNC(=O)c1ccncc1` [compound 826947] belongs 47.6 nM; to `C[C@@H]1CN(c2csc3cc(F)ccc23)C[C@H](C)N1CCCCNC(=O)c1cccnc1Cl` [compound 826948], 154 nM.

As to `C[C@@H]1CN(c2csc3cc(C(F)(F)F)ccc23)C[C@H](C)N1CCCCNC(=O)c1cc2ccccc2n1C` [compound 826950], the Ki was determined as 81.2 nM. Consider `COc1ccc2[nH]c(C(=O)NCCCCN3[C@H](C)CN(c4csc5cc(C(F)(F)F)ccc45)C[C@@H]3C)cc2c1` [compound 826951], for which the Ki came out at 41.3 nM. As for `C[C@@H]1CN(c2csc3cc(C(F)(F)F)ccc23)C[C@H](C)N1CCCCNC(=O)c1c[nH]c2ccccc12` [compound 826952], the Ki stood at 164 nM. To `C[C@@H]1CN(c2csc3cc(C(F)(F)F)ccc23)C[C@H](C)N1CCCCNC(=O)c1cccc2[nH]ccc12` [compound 826953] belongs 222 nM; to `C[C@@H]1CN(c2csc3cc(C(F)(F)F)ccc23)C[C@H](C)N1CCCCNC(=O)c1ccc2[nH]ccc2c1` [compound 826954], 39.4 nM. For `C[C@@H]1CN(c2csc3cc(C(F)(F)F)ccc23)C[C@H](C)N1CCCCNC(=O)c1ccc2cc[nH]c2c1` [compound 826955] the value was 70.5 nM. Regarding `C[C@@H]1CN(c2csc3cc(C(F)(F)F)ccc23)C[C@H](C)N1CCCCNC(=O)c1n[nH]c2ccccc12` [compound 826956], the Ki is 190 nM. Consider `C[C@@H]1CN(c2csc3cc(C(F)(F)F)ccc23)C[C@H](C)N1CCCCNC(=O)c1cc2ccccc2o1` [compound 826958], for which the Ki stood at 148 nM. On to `COc1ccc2[nH]c(C(=O)NCCCCN3[C@H](C)CN(c4csc5cc(F)ccc45)C[C@@H]3C)cc2c1` [compound 826960], for which the Ki was determined as 15.3 nM.

As to `C[C@@H]1CN(c2csc3cc(F)ccc23)C[C@H](C)N1CCCCNC(=O)c1cc2ccccc2n1C` [compound 826961], the Ki came out at 51.2 nM.

On to `C[C@@H]1CN(c2csc3cc(F)ccc23)C[C@H](C)N1CCCCNC(=O)c1c[nH]c2ccccc12` [compound 826962], for which the Ki came out at 79.8 nM. As to `C[C@@H]1CN(c2csc3cc(F)ccc23)C[C@H](C)N1CCCCNC(=O)c1cccc2[nH]ccc12` [compound 826963], the Ki was 72.9 nM. Turning to `C[C@@H]1CN(c2csc3cc(F)ccc23)C[C@H](C)N1CCCCNC(=O)c1ccc2[nH]ccc2c1` [compound 826964], the Ki was 32.2 nM.

As for `C[C@@H]1CN(c2csc3cc(F)ccc23)C[C@H](C)N1CCCCNC(=O)c1ccc2cc[nH]c2c1` [compound 826965], the Ki came out at 25.6 nM. To `C[C@@H]1CN(c2csc3cc(F)ccc23)C[C@H](C)N1CCCCNC(=O)c1n[nH]c2ccccc12` [compound 826966] belongs 77.1 nM; to `C[C@@H]1CN(c2csc3cc(F)ccc23)C[C@H](C)N1CCCCNC(=O)c1cc2ccccc2o1` [compound 827036], 51.2 nM. For `C[C@@H]1CN(c2csc3cc(C(F)(F)F)ccc23)C[C@H](C)N1CCCCNC(=O)c1cccs1` [compound 827037] the value was 106 nM; for `C[C@@H]1CN(c2csc3cc(C(F)(F)F)ccc23)C[C@H](C)N1CCCCNC(=O)c1cccc(Cl)c1` [compound 827038], 155 nM. To `COc1cc(OC)cc(C(=O)NCCCCN2[C@H](C)CN(c3csc4cc(C(F)(F)F)ccc34)C[C@@H]2C)c1` [compound 827039] belongs 378 nM.

Values taken from patent publication US7550469B2, “Heterocyclic amide derivatives and their use as dopamine D3 receptor ligands” (Aventis Pharmaceuticals Inc., priority 2001, dated 2009).
